The text below walks through data of ChEMBL document CHEMBL2074332, “Molecular and physiological evidence for multifunctionality of carnitine/organic cation transporter OCTN2” (Mol Pharmacol, 2001).

SMILES strings stand for the structures.

Series [1] addresses T1, OCTN2 (organic cation/carnitine transporter 2) (Mus musculus, UniProt Q9Z0E8).
T1 sequence (Q9Z0E8 whole entry): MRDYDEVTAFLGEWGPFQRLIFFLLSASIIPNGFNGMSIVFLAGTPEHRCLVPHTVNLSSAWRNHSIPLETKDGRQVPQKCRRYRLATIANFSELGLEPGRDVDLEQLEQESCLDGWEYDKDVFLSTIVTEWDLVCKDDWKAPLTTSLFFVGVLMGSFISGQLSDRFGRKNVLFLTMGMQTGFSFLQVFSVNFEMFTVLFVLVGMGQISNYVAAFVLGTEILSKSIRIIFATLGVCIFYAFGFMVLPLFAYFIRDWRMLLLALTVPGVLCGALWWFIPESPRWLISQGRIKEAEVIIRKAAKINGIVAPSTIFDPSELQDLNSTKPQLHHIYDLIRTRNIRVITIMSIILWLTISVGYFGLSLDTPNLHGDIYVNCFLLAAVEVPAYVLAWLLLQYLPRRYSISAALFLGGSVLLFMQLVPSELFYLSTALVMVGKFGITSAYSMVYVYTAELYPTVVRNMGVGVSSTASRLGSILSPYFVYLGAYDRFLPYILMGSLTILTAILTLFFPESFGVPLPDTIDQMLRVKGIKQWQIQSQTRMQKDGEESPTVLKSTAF
Nature of the series: TP_TRANSPORTER: inhibition of Carnitine uptake (Carnitine: 0.01 uM, Norepinephrine: 5000 uM) in OCTN2-expressing HEK293 cells. Type of series: functional, cell-based. Also noted: scale not given: the % may be the effect or the level left. The conditions noted are these: human, HEK293 cells that express OCTN2, probe carnitine; read-out: Activity.

Series [2] addresses T2, Organic cation/carnitine transporter 2 (Mus musculus, UniProt Q9Z0E8).
T2 sequence (Q9Z0E8 whole entry): T1 sequence (Q9Z0E8 whole entry)
Kind of series: TP_TRANSPORTER: inhibition of Carnitine uptake (Carnitine: 0.01 uM, NMN: 500 uM) in OCTN2-expressing HEK293 cells. Type of series: functional, cell-based. The following applies: human, hek293, 500 µM.

Series [3] deals with T1, OCTN2 (organic cation/carnitine transporter 2). Kind of series: in vitro. The following applies: human, HEK293 cells that express OCTN2, probe carnitine.
Description: TP_TRANSPORTER: inhibition of Carnitine uptake (Carnitine: 0.01 uM, TEA: 500 uM) in OCTN2-expressing HEK293 cells
Series [4] shares this target. Nature of the series: TP_TRANSPORTER: inhibition of Carnitine uptake (Carnitine: 0.01 uM, Procainamide: 500 uM) in OCTN2-expressing HEK293 cells. Type of series: functional, cell-based. Also on record: scale not given: the % may be the effect or the level left. The following applies: human, HEK293 cells that express OCTN2, probe carnitine; read-out: Activity.
For series [5] the target is unchanged. Kind of series: TP_TRANSPORTER: inhibition of Carnitine uptake (Carnitine: 0.01 uM, Acetylcholine: 5000 uM) in OCTN2-expressing HEK293 cells. Type of series: functional, cell-based. Also noted: scale not given: the % may be the effect or the level left. The conditions noted are these: human, HEK293 cells that express OCTN2, probe carnitine; read-out: Activity.

The target is the same in series [6]. Kind of series: TP_TRANSPORTER: inhibition of Carnitine uptake (Carnitine: 0.01 uM, Lidocaine: 500 uM) in OCTN2-expressing HEK293 cells. Type of series: functional, cell-based. Also noted: scale not given: the % may be the effect or the level left. The following applies: human, HEK293 cells that express OCTN2, probe carnitine; read-out: Activity.
Series [7] shares this target. Kind of series: TP_TRANSPORTER: inhibition of Carnitine uptake (Carnitine: 0.01 uM, Acetyl-beta-methylcholine: 500 uM) in OCTN2-expressing HEK293 cells. Type of series: functional, cell-based. Also noted: scale not given: the % may be the effect or the level left. The following applies: human, HEK293 cells that express OCTN2, probe carnitine; read-out: Activity.
For series [8] the target is unchanged. Kind of series: TP_TRANSPORTER: inhibition of Carnitine uptake (Carnitine: 0.01 uM, MPP+: 500 uM) in OCTN2-expressing HEK293 cells. Type of series: functional, cell-based. Also on record: scale not given: the % may be the effect or the level left. The following applies: human, HEK293 cells that express OCTN2, probe carnitine; read-out: Activity.
In series [9] the target is T2, Organic cation/carnitine transporter 2. Kind of series: TP_TRANSPORTER: uptake in OCTN2-expressing HEK293 cells. Type of series: functional, cell-based. The following applies: human.
Series [10] deals with T1, OCTN2 (organic cation/carnitine transporter 2). Kind of series: in vitro. The following applies: human, HEK293 cells that express OCTN2, probe carnitine. This is another data set of the same source.
Description: TP_TRANSPORTER: inhibition of Carnitine uptake (Carnitine: 0.01 uM, Dapamine: 5000 uM) in OCTN2-expressing HEK293 cells
The target is the same in series [11]. Kind of series: in vitro. The following applies: human, HEK293 cells that express OCTN2, probe carnitine. The source holds these as a separate data set.
Description: TP_TRANSPORTER: inhibition of Carnitine uptake (Carnitine: 0.01 uM, Thiamine: 5000 uM) in OCTN2-expressing HEK293 cells
The target is the same in series [12]. Kind of series: TP_TRANSPORTER: inhibition of Carnitine uptake (Carnitine: 0.01 uM, Pyrilamine: 500 uM) in OCTN2-expressing HEK293 cells. The following applies: human, HEK293 cells that express OCTN2, probe carnitine; read-out: Activity. Also on record: scale not given: the % may be the effect or the level left. Type of series: functional, cell-based.
For series [13] the target is unchanged. Kind of series: TP_TRANSPORTER: inhibition of Carnitine uptake (Carnitine: 0.01 uM, Serotonin: 5000 uM) in OCTN2-expressing HEK293 cells. Type of series: functional, cell-based. Also noted: scale not given: the % may be the effect or the level left. The following applies: human, HEK293 cells that express OCTN2, probe carnitine; read-out: Activity.
The target is the same in series [14]. Kind of series: TP_TRANSPORTER: inhibition of Carnitine uptake (Carnitine: 0.01 uM, Verapamil: 500 uM) in OCTN2-expressing HEK293 cells. Type of series: functional, cell-based. Also noted: scale not given: the % may be the effect or the level left. The conditions noted are these: human, HEK293 cells that express OCTN2, probe carnitine; read-out: Activity.
For series [15] the target is unchanged. Kind of series: TP_TRANSPORTER: inhibition of Carnitine uptake (Carnitine: 0.01 uM, Quinidine: 500 uM) in OCTN2-expressing HEK293 cells. Type of series: functional, cell-based. Also on record: scale not given: the % may be the effect or the level left. The following applies: human, HEK293 cells that express OCTN2, probe carnitine; read-out: Activity.
Series [16] addresses T2, Organic cation/carnitine transporter 2. Kind of series: TP_TRANSPORTER: inhibition of Carnitine uptake (Carnitine: 0.01 uM, PAH: 500 uM) in OCTN2-expressing HEK293 cells. Type of series: functional, cell-based. The conditions noted are these: human, hek293, 500 µM.
The target of series [17] is T1, OCTN2 (organic cation/carnitine transporter 2). Nature of the series: in vitro. The following applies: human, HEK293 cells that express OCTN2, probe carnitine. This is another data set of the same source.
Description: TP_TRANSPORTER: inhibition of Carnitine uptake (Carnitine: 0.01 uM, Choline: 500 uM) in OCTN2-expressing HEK293 cells
Series [18] has as its target T2, Organic cation/carnitine transporter 2. Nature of the series: TP_TRANSPORTER: inhibition of Carnitine uptake (Carnitine: 0.01 uM, alpha-KG: 500 uM) in OCTN2-expressing HEK293 cells. Type of series: functional, cell-based. The following applies: human, hek293, 500 µM.
Series [19] has the same target. Kind of series: TP_TRANSPORTER: inhibition of Carnitine uptake (Carnitine: 0.01 uM, Guanidine: 500 uM) in OCTN2-expressing HEK293 cells. Type of series: functional, cell-based. The conditions noted are these: human, hek293, 500 µM.
The target of series [20] is T1, OCTN2 (organic cation/carnitine transporter 2). Kind of series: TP_TRANSPORTER: inhibition of Carnitine uptake (Carnitine: 0.01 uM, Diphenhydramine: 500 uM) in OCTN2-expressing HEK293 cells. Type of series: functional, cell-based. Also noted: scale not given: the % may be the effect or the level left. The following applies: human, HEK293 cells that express OCTN2, probe carnitine; read-out: Activity.

As for `NC[C@H](O)c1ccc(O)c(O)c1` [NOREPINEPHRINE], in [1], the activity at 5000 µM turned out to be 70.9%.

For `CNC(=O)c1cccnc1` [NICOTINYL METHYLAMIDE], in series [2], the Activity result is “is not an inhibitor [-]”.

Turning to `CC[N+](CC)(CC)CC` [TETRYLAMMONIUM], in series [3], the activity at 500 µM came out at 15.4%.

Regarding `CCN(CC)CCNC(=O)c1ccc(N)cc1` [PROCAINAMIDE], the activity at 500 µM in series [4] stood at 81.3%.

As for `CC(=O)OCC[N+](C)(C)C` [ACETYLCHOLINE], the activity at 5000 µM in series [5] amounted to 34.2%.

In the case of `CCN(CC)CC(=O)Nc1c(C)cccc1C` [LIDOCAINE], the activity at 500 µM in [6] is 57.1%.

In the case of `CC(=O)OC(C)C[N+](C)(C)C` (centres undefined), the activity at 500 µM in [7] was 82.5%.

`C[n+]1ccc(-c2ccccc2)cc1`: the activity at 500 µM in [8] was determined as 72.9%. Besides, in [9], the Activity entry is “substrate [+]”.

As for `NCCc1ccc(O)c(O)c1` [DOPAMINE], the activity at 5000 µM in series [10] was determined as 70.9%.

In [11], `Cc1ncc(C[n+]2csc(CCO)c2C)c(N)n1` [THIAMINE ION] had an activity at 5000 µM of 65.9%.

`COc1ccc(CN(CCN(C)C)c2ccccn2)cc1` [PYRILAMINE]: the activity at 500 µM in [12] is 36.3%. Further, the Activity entry in series [9] was “substrate [+]”.

Consider `NCCc1c[nH]c2ccc(O)cc12` [SEROTONIN], for which the activity at 5000 µM in [13] came to 51.3%.

Regarding `COc1ccc(CCN(C)CCCC(C#N)(c2ccc(OC)c(OC)c2)C(C)C)cc1OC` (centres undefined) [VERAPAMIL], the activity at 500 µM in series [14] was determined as 1.3%. In addition, in series [9], the Activity result is “substrate [+]”.

For the molecule `C=C[C@H]1C[N@@]2CC[C@H]1C[C@@H]2[C@@H](O)c1ccnc2ccc(OC)cc12` [QUINIDINE], the activity at 500 µM in series [15] is 6.1%.

Regarding `Nc1ccc(C(=O)NCC(=O)O)cc1` [AMINOHIPPURIC ACID], the Activity result in series [16] was “is not an inhibitor [-]”; in series [9], “is not a substrate [-]”.

Molecule `C[N+](C)(C)CCO` [CHOLINE] returned an activity at 500 µM in series [17] of 74.6%.

`O=C(O)CCC(=O)C(=O)O` [ALPHA-KETOGLUTARIC ACID]: the Activity entry in [18] was “is not an inhibitor [-]”.

`CC(=O)O[C@H](CC(=O)[O-])C[N+](C)(C)C` [ACETYLCARNITINE]: the Activity entry in series [9] is “substrate [+]”.

Turning to `N=C(N)N` [GUANIDINE], the Activity entry in [19] was “is not an inhibitor [-]”.

Take `CN(C)CCOC(c1ccccc1)c1ccccc1` [DIPHENHYDRAMINE]: in series [20], the activity at 500 µM came out at 43.6%.
